According to PubChem BioAssay AID274 (DTP/NCI, 2004):
Values joined by “and” are separate entries in the source; they are usually repeats but may differ in a detail not shown here. Equal values may be shown once. Inconclusive results and toxic doses are left out.

System: BDF1 mice, Lewis lung carcinoma iv, survival T/C
Experiment: NCI In Vivo Anticancer Drug Screen. Data for tumor model Lewis Lung Carcinoma (intravenous) in B6D2F1 (BDF1) mice
Details: endpoint: median survival time, schedule: Q01DX009 (ip), higher = longer survival
Experimental: The antitumor activity of compounds was measured in mice bearing transplantable tumors. Survival or tumor size were measured and the results are expressed as the measurement made in the treated group (T) divided by the measurement made in the vehicle treated control group (C). The tumor model used in this assay is Lewis Lung Carcinoma (intravenous) in B6D2F1 (BDF1) mice

[1] = dose: 12.5 mg/kg/injection, vehicle: saline with Tween-80
[2] = dose: 50.0 mg/kg/injection, vehicle: saline with Tween-80
[3] = dose: 100.0 mg/kg/injection, vehicle: saline with Tween-80
[4] = dose: 200.0 mg/kg/injection, vehicle: saline with Tween-80
[5] = dose: 25.0 mg/kg/injection, vehicle: saline with Tween-80
[6] = dose: 2.5 mg/kg/injection, vehicle: saline
[7] = dose: 5.0 mg/kg/injection, vehicle: saline with Tween-80
[8] = dose: 5.0 mg/kg/injection, vehicle: saline
[9] = dose: 100.0 mg/kg/injection, vehicle: saline
[10] = dose: 200.0 mg/kg/injection, vehicle: saline
[11] = dose: 400.0 mg/kg/injection, vehicle: saline
[12] = dose: 25.0 mg/kg/injection, vehicle: saline
[13] = dose: 50.0 mg/kg/injection, vehicle: saline
[14] = dose: 6.25 mg/kg/injection, vehicle: saline with Tween-80
[15] = dose: 12.5 mg/kg/injection, vehicle: saline
[16] = dose: 50.0 mg/kg/injection, vehicle: Klucel (hydroxypropylcellulose) (HPC)
[17] = dose: 100.0 mg/kg/injection, vehicle: Klucel (hydroxypropylcellulose) (HPC)
[18] = dose: 3.12 mg/kg/injection, vehicle: Klucel (hydroxypropylcellulose) (HPC)
[19] = dose: 6.25 mg/kg/injection, vehicle: Klucel (hydroxypropylcellulose) (HPC)
[20] = dose: 10.0 mg/kg/injection, vehicle: saline with Tween-80
[21] = dose: 3.12 mg/kg/injection, vehicle: saline with Tween-80
[22] = dose: 10.0 mg/kg/injection, vehicle: saline
[23] = dose: 20.0 mg/kg/injection, vehicle: saline with Tween-80

Cc1cn(C2CC(O)C(CO)O2)c(=O)[nH]c1=O (centres undefined)
T/C [1]: 89 % of control | T/C [2]: 88 % of control | T/C [3]: 94 % of control | T/C [4]: 98 % of control

CC(C)n1cnc2c(Cl)ncnc21
T/C [5]: 113 % of control | T/C [2]: 95 % of control

Clc1cc(Cl)nc(N2CC2)n1
T/C (dose: 1.25 mg/kg/injection, vehicle: saline): 91 % of control | T/C [6]: 103 % of control | T/C [7]: 114 % of control | T/C [8]: 103 % of control

CN(C)CC(=O)c1ccc(O)c(O)c1
T/C [9]: 99 % of control | T/C [10]: 91 % of control | T/C [11]: 90 % of control

CC(=O)OCc1ncccc1OC(C)=O
T/C [12]: 97 % of control | T/C [13]: 100 % of control | T/C [9]: 101 % of control | T/C [10]: 104 % of control

O=C(NCCN1CC1)C(=O)NCCN1CC1
T/C (dose: 0.38 mg/kg/injection, vehicle: saline): 108 % of control | T/C (dose: 0.75 mg/kg/injection, vehicle: saline): 110 % of control | T/C (dose: 1.5 mg/kg/injection, vehicle: saline): 120 % of control | T/C (dose: 3.0 mg/kg/injection, vehicle: saline): 101 % of control

CC1CCC2(OC1)OC1CC3C4CCC5CC(O)CCC5(C)C4CCC3(C)C1C2C (centres undefined)
T/C (dose: 20.0 mg/kg/injection, vehicle: Klucel (hydroxypropylcellulose) (HPC)): 91 % of control

OCC1OC(n2cnc3cc(Cl)c(Cl)cc32)C(O)C1O (centres undefined)
T/C [14]: 96 % of control | T/C [1]: 94 % of control | T/C [5]: 110 % of control | T/C [2]: 110 % of control | T/C [3]: 100 % of control | T/C [4]: 90 % of control

O=c1[nH]c(=O)c2nc(-c3cccnc3)cnc2[nH]1
T/C [15]: 102 % of control | T/C [12]: 101 % of control | T/C [13]: 108 % of control | T/C [9]: 100 % of control | T/C [10]: 111 % of control | T/C [11]: 111 % of control

OC(CBr)C(O)C(O)C(O)CBr (centres undefined)
T/C [16]: 117 % of control | T/C [17]: 109 % of control | T/C (dose: 200.0 mg/kg/injection, vehicle: Klucel (hydroxypropylcellulose) (HPC)): 103 % of control | T/C (dose: 400.0 mg/kg/injection, vehicle: Klucel (hydroxypropylcellulose) (HPC)): 111 % of control | T/C (dose: 800.0 mg/kg/injection, vehicle: Klucel (hydroxypropylcellulose) (HPC)): 97 % of control

O=C(Nc1ccc(Cl)c(Cl)c1)Nc1c(Oc2ccc(Cl)c(Cl)c2)ccc(Cl)c1S(=O)(=O)O
T/C [18]: 113 % of control | T/C [19]: 104 % of control | T/C (dose: 25.0 mg/kg/injection, vehicle: Klucel (hydroxypropylcellulose) (HPC)): 109 % of control | T/C [16]: 105 % of control | T/C [17]: 100 % of control

[N-]=[N+]=CC(=O)CCC(N)C(=O)O (centres undefined)
T/C (dose: 0.01 mg/kg/injection, vehicle: saline): 95 % of control | T/C (dose: 0.02 mg/kg/injection, vehicle: saline): 98 % of control | T/C (dose: 0.05 mg/kg/injection, vehicle: saline): 108 % of control | T/C (dose: 0.1 mg/kg/injection, vehicle: saline): 109 % of control and 111 % of control

C[n+]1cccc(NC(=O)c2ccc(NC(=O)C34CCC(C(=O)Nc5ccc(C(=O)Nc6ccc[n+](C)c6)cc5)(CC3)CC4)cc2)c1
T/C [7]: 93 % of control | T/C [20]: 99 % of control

COc1cc2ccnc(/C=N\NC(N)=S)c2cc1OC
T/C [5]: 101 % of control | T/C [2]: 97 % of control | T/C [3]: 92 % of control | T/C [4]: 103 % of control

C[C@H](N)C(=O)N[C@@H]1[C@H]2C(=C(O)C[C@@H](O)[C@@H]2O)C(=O)O[C@]1(C)C(Cl)Cl
T/C (dose: 0.38 mg/kg/injection, vehicle: Klucel (hydroxypropylcellulose) (HPC)): 101 % of control | T/C (dose: 0.75 mg/kg/injection, vehicle: Klucel (hydroxypropylcellulose) (HPC)): 102 % of control | T/C (dose: 1.5 mg/kg/injection, vehicle: Klucel (hydroxypropylcellulose) (HPC)): 108 % of control

CCCC(=O)O
T/C [15]: 93 % of control | T/C [12]: 104 % of control | T/C [13]: 95 % of control | T/C [9]: 112 % of control

C[N+](C)(C)c1ncnc2nc[nH]c12
T/C [13]: 103 % of control | T/C [9]: 100 % of control | T/C [10]: 103 % of control

OC1CCCC2CCCNC12 (centres undefined)
T/C [21]: 104 % of control | T/C [14]: 100 % of control | T/C [1]: 152 % of control | T/C [5]: 96 % of control | T/C [2]: 99 % of control | T/C [3]: 95 % of control

Nc1nc(=S)c2[nH]cnc2[nH]1
T/C (dose: 0.25 mg/kg/injection, vehicle: saline): 105 % of control | T/C (dose: 0.5 mg/kg/injection, vehicle: saline): 114 % of control | T/C (dose: 1.0 mg/kg/injection, vehicle: saline): 107 % of control | T/C (dose: 2.0 mg/kg/injection, vehicle: saline): 92 % of control

C/C(=N\NC(N)=O)c1cccc(/C(C)=N/NC(N)=O)n1
T/C [14]: 104 % of control | T/C [1]: 100 % of control | T/C [5]: 98 % of control | T/C [2]: 103 % of control | T/C [3]: 106 % of control

Nc1nc(=S)c2ncn(C3OC(CO)CC3O)c2[nH]1 (centres undefined)
T/C [8]: 115 % of control | T/C [22]: 101 % of control | T/C (dose: 20.0 mg/kg/injection, vehicle: saline): 87 % of control

C=C(C)[C@@H]1CCc2c(O)c(O)c(=O)cc(C)c2C1
T/C (dose: 3.12 mg/kg/injection, vehicle: saline): 111 % of control | T/C (dose: 6.25 mg/kg/injection, vehicle: saline): 106 % of control | T/C [15]: 96 % of control | T/C [12]: 101 % of control | T/C [13]: 102 % of control | T/C [9]: 101 % of control

NC1(C(=O)O)CCCc2ccc(N(CCCl)CCCl)cc21 (centres undefined)
T/C [6]: 99 % of control | T/C [8]: 98 % of control | T/C [20]: 118 % of control | T/C [22]: 109 % of control | T/C [23]: 108 % of control

CC(=O)OCC(=O)[C@@]12OC(C)(C)O[C@@H]1C[C@H]1[C@@H]3CC(C=O)=C4C=C(OCCCl)CC[C@]4(C)[C@@]3(F)[C@@H](O)C[C@@]12C
T/C (dose: 1.56 mg/kg/injection, vehicle: Klucel (hydroxypropylcellulose) (HPC)): 104 % of control | T/C [18]: 100 % of control | T/C (dose: 3.13 mg/kg/injection, vehicle: Klucel (hydroxypropylcellulose) (HPC)): 110 % of control | T/C [19]: 102 % of control and 112 % of control | T/C (dose: 12.5 mg/kg/injection, vehicle: Klucel (hydroxypropylcellulose) (HPC)): 104 % of control and 121 % of control

Nc1nc2c(ncn2C2OC(CO)C(O)C2O)c(=O)[nH]1.Nc1nc2c(ncn2C2OC(CO)C(O)C2O)c(=O)[nH]1.[NH2-].[NH2-].[Pt+2] (centres undefined)
T/C (dose: 12.5 mg/kg/injection, vehicle: water): 99 % of control | T/C (dose: 25.0 mg/kg/injection, vehicle: water): 96 % of control | T/C (dose: 50.0 mg/kg/injection, vehicle: water): 104 % of control | T/C (dose: 100.0 mg/kg/injection, vehicle: water): 113 % of control

COc1ccc(-c2c(C)c(C(=O)O)nc(-c3ccc4c(O)c(OC)c5c(c4n3)=NC(C)(C)N=5)c2N)c(O)c1OC
T/C [20]: 113 % of control | T/C [23]: 103 % of control | T/C (dose: 40.0 mg/kg/injection, vehicle: saline with Tween-80): 98 % of control

CCc1nc(N)nc(N)c1-c1ccc(Cl)c([N+](=O)[O-])c1
T/C (dose: 1.56 mg/kg/injection, vehicle: saline with Tween-80): 100 % of control | T/C [21]: 98 % of control | T/C [14]: 111 % of control | T/C [1]: 111 % of control
